This is an account of results in US20240279241A1, “PYRIDO[4,3-D]PYRIMIDINE COMPOUNDS CAPABLE OF INHIBITING KRAS MUTANT PROTEINS” (Redx Pharma PLC, priority 2021, published 2024).

Assay type in all cases: biochemical
The target of one assay is T1, KRAS G12V (Homo sapiens, UniProt P01116, G12V).
T1 construct: 4 nM KRAS; aa1-188 containing the G12V, G12C, G12A or G12S amino acid substitution
Description: HTRF nucleotide exchange assay (NEA), KRAS G12V. The method, then:
(§1) The capacity of compounds to bind KRAS G12D, other KRAS mutants and wildtype RAS isoforms was quantified using a HTRF nucleotide exchange assay. Recombinant human RAS protein (2 nM; aa1-188 KRAS WT, HRAS WT, NRAS WT, or KRAS containing the containing the G12D, G13D or Q61H amino acid substitutions, or 4 nM KRAS; aa1-188 containing the G12V, G12C, G12A or G12S amino acid substitution, an N-terminal 6×His-tag and leader sequence), and 2 nM Europium-labeled anti-6×His antibody were mixed in assay buffer (10 mM HEPES pH7.3, 150 mM NaCl, 5 mM MgCl2, 0.05% BSA, 0.0025% NP-40 and 100 mM KF) with various concentrations of compound in a 384-well plate and a volume of 5 uL. After a 60-minute incubation at room temperature, 5 ul of 200 nM EDA-GTP-DY647P1 (diluted in assay buffer) was added to the plate. Following 30-minute incubation at room temperature, time-resolved fluorescence was measured on a PerkinElmer Envision plate reader. DMSO (0.3%) and unlabeled […] (1 μM) or equivalent tool compound were used to generate the Max and Min assay signals, respectively. Data was analysed using a four-parameter logistic model to calculate IC50 values, with at least two independent replicates were performed for each compound.
(In TR-FRET formats the signal depends on donor and acceptor labels being close together.)

In a further assay the target is T2, KRAS WT (Homo sapiens, UniProt P01116).
T2 construct: Recombinant human RAS protein (2 nM); aa1-188 KRAS WT
Description: HTRF nucleotide exchange assay (NEA), KRAS WT. The procedure: as §1

The target in the next assay is T3, KRAS G12C (Homo sapiens, UniProt P01116, G12C).
T3 construct: 4 nM KRAS; aa1-188 containing the G12V, G12C, G12A or G12S amino acid substitution
Description: HTRF nucleotide exchange assay (NEA), KRAS G12C. The procedure: as §1

Another assay addresses T4, KRAS G12D (Homo sapiens, UniProt P01116, G12D).
T4 construct: Recombinant human RAS protein (2 nM)
Description: HTRF nucleotide exchange assay (NEA), KRAS G12D. Conditions: recombinant human KRAS G12D aa1-188, 2 nM; lowest class = % inhibition at 10 μM. The method, then: as §1

The mark [1] stands for this setting: recombinant human KRAS WT aa1-188, 2 nM, lowest class = % inhibition at 10 μM.

The pIC50 is −log10 of the IC50, conventionally taken in molar units.

The structures appear in SMILES notation. pIC50: −log10 of the molar value. Like-named read-outs stand apart in the source and are kept apart here.

T4 sequence (P01116 1-188 isoform P01116-2 G12D): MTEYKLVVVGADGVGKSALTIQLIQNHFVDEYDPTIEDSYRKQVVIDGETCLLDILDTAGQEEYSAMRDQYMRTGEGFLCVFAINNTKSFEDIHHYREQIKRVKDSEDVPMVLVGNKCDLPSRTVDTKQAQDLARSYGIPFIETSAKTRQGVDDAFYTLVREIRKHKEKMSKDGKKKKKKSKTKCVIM
T3 sequence (P01116 1-188 isoform P01116-2 G12C): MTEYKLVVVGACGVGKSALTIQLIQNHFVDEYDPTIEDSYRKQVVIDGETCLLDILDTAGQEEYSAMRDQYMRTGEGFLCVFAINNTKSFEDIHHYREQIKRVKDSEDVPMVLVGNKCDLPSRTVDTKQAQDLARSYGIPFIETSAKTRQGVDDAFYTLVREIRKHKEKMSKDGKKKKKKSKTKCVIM
T2 sequence (P01116 1-188 isoform P01116-2): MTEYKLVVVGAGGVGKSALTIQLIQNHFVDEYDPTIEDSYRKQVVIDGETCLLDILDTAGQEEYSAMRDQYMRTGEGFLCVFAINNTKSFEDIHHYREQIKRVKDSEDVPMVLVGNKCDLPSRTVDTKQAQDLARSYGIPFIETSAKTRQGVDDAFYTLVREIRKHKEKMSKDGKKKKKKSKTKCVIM
T1 sequence (P01116 1-188 isoform P01116-2 G12V): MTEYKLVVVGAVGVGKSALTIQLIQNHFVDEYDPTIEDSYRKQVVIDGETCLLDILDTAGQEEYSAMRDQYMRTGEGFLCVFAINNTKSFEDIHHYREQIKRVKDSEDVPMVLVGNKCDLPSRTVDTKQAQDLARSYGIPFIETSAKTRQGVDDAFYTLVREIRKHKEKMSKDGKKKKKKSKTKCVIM

In the case of `C#Cc1c(F)ccc2cc(O)cc(-c3ncc4c(N5CCC(O)CC5)nc(OC[C@@]56CCCN5C[C@H](F)C6)nc4c3F)c12` (relative stereo) [Example 86, 1-[7-(8-ethynyl-7-fluoro-3-hydroxy-1-naphthyl)-8-fluoro-2-[[trans-2-fluoro-1,2,3,5,6,7-hexahydropyrrolizin-8-yl]methoxy]pyrido[4,3-d]pyrimidin-4-yl]piperidin-4-ol], the pIC50 against KRAS G12V, at KRAS WT, against KRAS G12C and at KRAS G12D was at least 8.00 throughout.
As to `Oc1cc(-c2ncc3c(N4CCC5(CCNC5)CC4)nc(OCC45CCCN4CCC5)nc3c2F)c2ccccc2c1` [Example 2, 4-[4-(2,8-diazaspiro[4.5]decan-8-yl)-8-fluoro-2-(1,2,3,5,6,7-hexahydropyrrolizin-8-ylmethoxy)pyrido[4,3-d]pyrimidin-7-yl]naphthalen-2-ol], the pIC50 against KRAS WT, at KRAS G12C and at KRAS G12D was 5.00 to 7.00 in each case.
Turning to `Oc1cc(-c2ncc3c(N4CCOCC4)nc(OCC45CCCN4CCC5)nc3c2F)c2ccccc2c1` [Example 5, 4-[8-fluoro-2-(1,2,3,5,6,7-hexahydropyrrolizin-8-ylmethoxy)-4-(morpholin-4-yl)pyrido[4,3-d]pyrimidin-7-yl]naphthalen-2-ol], the pIC50 at KRAS G12V, against KRAS WT, against KRAS G12C and on KRAS G12D was 5.00 to 7.00 throughout.
Turning to `CC1COCCCN1c1nc(OCC23CCCN2CCC3)nc2c(F)c(-c3cc(O)cc4ccccc34)ncc12` (stereo not shown) [Example 18, 4-[8-fluoro-2-(1,2,3,5,6,7-hexahydropyrrolizin-8-ylmethoxy)-4-(3-methyl-1,4-oxazepan-4-yl)pyrido[4,3-d]pyrimidin-7-yl]naphthalen-2-ol], the pIC50 against KRAS WT, on KRAS G12C and at KRAS G12D was 7.00 to 8.00 each time.
On to `O=S1(=O)CCCN(c2nc(OCC34CCCN3CCC4)nc3c(F)c(-c4cc(O)cc5ccccc45)ncc23)CC1` [Example 24, 4-[4-(1,1-dioxo-1,4-thiazepan-4-yl)-8-fluoro-2-(1,2,3,5,6,7-hexahydropyrrolizin-8-ylmethoxy)pyrido [4,3-d]pyrimidin-7-yl]naphthalen-2-ol], for which the pIC50 against KRAS WT is 5.00 to 7.00; against KRAS G12C, 7.00 to 8.00; at KRAS G12D it was 5.00 to 7.00.
On to `COC(=O)CCNc1nc(OCC23CCCN2CCC3)nc2c(F)c(-c3cc(O)cc4ccccc34)ncc12` [Example 25], for which the pIC50 against KRAS WT, against KRAS G12C and on KRAS G12D was 5.00 to 7.00 each time.
Turning to `CSCCCNc1nc(OCC23CCCN2CCC3)nc2c(F)c(-c3cc(O)cc4ccccc34)ncc12` [Example 26, 4-[8-fluoro-2-(1,2,3,5,6,7-hexahydropyrrolizin-8-ylmethoxy)-4-(3-methylsulfanylpropylamino)pyrido[4,3-d]pyrimidin-7-yl]naphthalen-2-ol], the pIC50 at KRAS WT, on KRAS G12C and on KRAS G12D was 5.00 to 7.00 in each case.
Take `COCCCN(C)c1nc(OCC23CCCN2CCC3)nc2c(F)c(-c3cc(O)cc4ccccc34)ncc12` [Example 28, 4-[8-fluoro-2-(1,2,3,5,6,7-hexahydropyrrolizin-8-ylmethoxy)-4-[3-methoxypropyl(methyl)amino]pyrido[4,3-d]pyrimidin-7-yl]naphthalen-2-ol]: the pIC50 against KRAS WT, against KRAS G12C and at KRAS G12D was 5.00 to 7.00 in each case.
For `Oc1cc(-c2ncc3c(N4CCc5[nH]ncc5C4)nc(OCC45CCCN4CCC5)nc3c2F)c2ccccc2c1` [Example 61, 4-[8-fluoro-2-(1,2,3,5,6,7-hexahydropyrrolizin-8-ylmethoxy)-4-(1,4,6,7-tetrahydropyrazolo [4,3-c]pyridin-5-yl)pyrido[4,3-d]pyrimidin-7-yl]naphthalen-2-ol], the pIC50 against KRAS WT and on KRAS G12D was 5.00 to 7.00 throughout.
For `Oc1cc(-c2ncc3c(N4CCc5cn[nH]c5C4)nc(OCC45CCCN4CCC5)nc3c2F)c2ccccc2c1` [Example 62, 4-[8-fluoro-2-(1,2,3,5,6,7-hexahydropyrrolizin-8-ylmethoxy)-4-(1,4,5,7-tetrahydropyrazolo [3,4-c]pyridin-6-yl)pyrido[4,3-d]pyrimidin-7-yl]naphthalen-2-ol], the pIC50 against KRAS WT and at KRAS G12D was 5.00 to 7.00 throughout.
As to `CC1(C#N)CCN(c2nc(OCC34CCCN3CCC4)nc3c(F)c(-c4cc(O)cc5ccccc45)ncc23)CC1` [Example 63, 1-[8-fluoro-2-(1,2,3,5,6,7-hexahydropyrrolizin-8-ylmethoxy)-7-(3-hydroxy-1-naphthyl)pyrido[4,3-d]pyrimidin-4-yl]-4-methyl-piperidine-4-carbonitrile], the pIC50 at KRAS WT and on KRAS G12D was 5.00 to 7.00 each time.
Regarding `CC(=O)OCCCNc1nc(OCC23CCCN2CCC3)nc2c(F)c(-c3cc(O)cc4ccccc34)ncc12` [Example 64, 3-[[8-fluoro-2-(1,2,3,5,6,7-hexahydropyrrolizin-8-ylmethoxy)-7-(3-hydroxy-1-naphthyl)pyrido[4,3-d]pyrimidin-4-yl]amino]propyl acetate], the pIC50 on KRAS WT and on KRAS G12D was 5.00 to 7.00 throughout.
`Oc1cc(-c2ncc3c(N4CC5CC4CC5O)nc(OCC45CCCN4CCC5)nc3c2F)c2ccccc2c1` (stereo not shown) [Example 66, 2-[8-fluoro-2-(1,2,3,5,6,7-hexahydropyrrolizin-8-ylmethoxy)-7-(3-hydroxy-1-naphthyl)pyrido[4,3-d]pyrimidin-4-yl]-2-azabicyclo[2.2.1] heptan-5-ol]: the pIC50 on KRAS WT and at KRAS G12D was 5.00 to 7.00 throughout.
Consider `NS(=O)(=O)CCCNc1nc(OCC23CCCN2CCC3)nc2c(F)c(-c3cc(O)cc4ccccc34)ncc12` [Example 67], for which the pIC50 against KRAS WT and on KRAS G12D was 5.00 to 7.00 throughout.
In the case of `CC1CN(c2nc(OCC34CCCN3CCC4)nc3c(F)c(-c4cc(O)cc5ccccc45)ncc23)CCC1O` (stereo not shown) [Example 68, 1-[8-fluoro-2-(1,2,3,5,6,7-hexahydropyrrolizin-8-ylmethoxy)-7-(3-hydroxy-1-naphthyl)pyrido[4,3-d]pyrimidin-4-yl]-3-methyl-piperidin-4-ol], the pIC50 at KRAS WT and on KRAS G12D was 5.00 to 7.00 each time.
As for `CC1CC(O)CCN1c1nc(OCC23CCCN2CCC3)nc2c(F)c(-c3cc(O)cc4ccccc34)ncc12` (stereo not shown) [Example 69, 1-[8-fluoro-2-(1,2,3,5,6,7-hexahydropyrrolizin-8-ylmethoxy)-7-(3-hydroxy-1-naphthyl)pyrido[4,3-d]pyrimidin-4-yl]-2-methyl-piperidin-4-ol], the pIC50 at KRAS WT was 5.00 to 7.00; on KRAS G12D, 7.00 to 8.00.
As for `Oc1cc(-c2ncc3c(N4CC5CC(C4)C5O)nc(OCC45CCCN4CCC5)nc3c2F)c2ccccc2c1` (stereo not shown) [Example 71, 3-[8-fluoro-2-(1,2,3,5,6,7-hexahydropyrrolizin-8-ylmethoxy)-7-(3-hydroxy-1-naphthyl)pyrido[4,3-d]pyrimidin-4-yl]-3-azabicyclo[3.1.1] heptan-6-ol], the pIC50 at KRAS WT and at KRAS G12D was 5.00 to 7.00 each time.
As for `Oc1cc(-c2ncc3c(N4CCC5CCC(C4)O5)nc(OCC45CCCN4CCC5)nc3c2F)c2ccccc2c1` (stereo not shown) [Example 80, 4-[8-fluoro-2-(1,2,3,5,6,7-hexahydropyrrolizin-8-ylmethoxy)-4-(9-oxa-3-azabicyclo[4.2.1]nonan-3-yl)pyrido [4,3-d]pyrimidin-7-yl]naphthalen-2-ol], the pIC50 against KRAS WT and on KRAS G12D was 5.00 to 7.00 in each case.
On to `Fc1c(-c2cccc3[nH]ncc23)ncc2c(N3CCCOCC3)nc(OCC34CCCN3CCC4)nc12` [Example 92, 4-[8-fluoro-2-(1,2,3,5,6,7-hexahydropyrrolizin-8-ylmethoxy)-7-(1H-indazol-4-yl)pyrido[4,3-d]pyrimidin-4-yl]-1,4-oxazepane], for which the pIC50 on KRAS WT (setting [1]) was under 5.00; at KRAS G12D, 5.00 to 7.00.
Take `Nc1nc2c(-c3ncc4c(N5CCCOCC5)nc(OCC56CCCN5CCC6)nc4c3F)cccc2s1` [Example 93, 4-[8-fluoro-2-(1,2,3,5,6,7-hexahydropyrrolizin-8-ylmethoxy)-4-(1,4-oxazepan-4-yl)pyrido[4,3-d]pyrimidin-7-yl]-1,3-benzothiazol-2-amine]: the pIC50 on KRAS WT and on KRAS G12D was 5.00 to 7.00 in each case.
Turning to `Fc1c(-c2cccc3[nH]ncc23)ncc2c(N3CCCOCC3)nc(OC[C@@]34CCCN3C[C@H](F)C4)nc12` [Example 95, 4-[8-fluoro-7-(1H-indazol-4-yl)-2-[[trans-2-fluoro-1,2,3,5,6,7-hexahydropyrrolizin-8-yl]methoxy]pyrido[4,3-d]pyrimidin-4-yl]-1,4-oxazepane], the values for the pIC50 on KRAS WT (setting [1]) and on KRAS G12D were under 5.00 and 5.00 to 7.00, respectively.
